T1: OsSPX4 (Oryza sativa, UniProt Q10B79)
T1 construct: gene SPX4; full-length, N-terminal 6xHis tag removed by drICE protease; E. coli BL21(DE3)
T1 sequence (Q10B79 1-320): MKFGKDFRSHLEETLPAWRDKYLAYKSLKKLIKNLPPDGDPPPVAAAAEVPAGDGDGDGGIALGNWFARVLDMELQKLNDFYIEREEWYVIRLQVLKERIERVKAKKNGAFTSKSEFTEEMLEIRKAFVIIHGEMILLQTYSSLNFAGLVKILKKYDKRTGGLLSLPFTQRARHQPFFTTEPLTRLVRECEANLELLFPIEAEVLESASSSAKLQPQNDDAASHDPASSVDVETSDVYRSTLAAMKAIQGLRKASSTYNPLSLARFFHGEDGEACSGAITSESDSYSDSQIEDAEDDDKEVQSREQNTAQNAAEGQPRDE

T2: AtSPX4 (Arabidopsis thaliana, UniProt Q94A21)
T2 construct: gene SPX4; full-length, N-terminal 6xHis tag removed by drICE protease; E. coli BL21(DE3)
T2 sequence (Q94A21 1-318): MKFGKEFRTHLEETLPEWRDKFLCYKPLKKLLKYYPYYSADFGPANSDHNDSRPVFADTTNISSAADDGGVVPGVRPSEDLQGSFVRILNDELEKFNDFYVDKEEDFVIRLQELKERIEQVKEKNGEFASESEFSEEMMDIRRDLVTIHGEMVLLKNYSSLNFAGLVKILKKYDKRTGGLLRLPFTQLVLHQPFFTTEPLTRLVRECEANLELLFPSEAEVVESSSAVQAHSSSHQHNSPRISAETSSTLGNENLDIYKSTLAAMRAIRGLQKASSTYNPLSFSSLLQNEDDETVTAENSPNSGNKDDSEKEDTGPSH

T3: OsSPX2^1-267/Δ47-64 (Oryza sativa, UniProt Q6Z784, DEL47-64)
T3 construct: gene SPX2; residues 1-267 lacking 47-64, C-terminal 8xHis tag, excess SPX2 separated from co-expressed PHR2 231-362; E. coli; monomer with InsP6
T3 sequence (Q6Z784 with tags, fused parts or gaps DEL47-64): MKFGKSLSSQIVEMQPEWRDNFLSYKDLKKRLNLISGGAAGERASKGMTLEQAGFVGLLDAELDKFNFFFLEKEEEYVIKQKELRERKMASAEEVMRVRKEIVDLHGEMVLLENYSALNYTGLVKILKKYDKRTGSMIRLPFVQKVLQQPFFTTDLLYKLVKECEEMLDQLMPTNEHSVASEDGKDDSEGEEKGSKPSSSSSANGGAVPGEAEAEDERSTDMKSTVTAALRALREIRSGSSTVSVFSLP

T4: OsSPX1 (Oryza sativa, UniProt Q69XJ0)
T4 construct: gene SPX1; full-length, N-terminal 6xHis tag removed by drICE protease; E. coli BL21(DE3)
T4 sequence (Q69XJ0 1-295): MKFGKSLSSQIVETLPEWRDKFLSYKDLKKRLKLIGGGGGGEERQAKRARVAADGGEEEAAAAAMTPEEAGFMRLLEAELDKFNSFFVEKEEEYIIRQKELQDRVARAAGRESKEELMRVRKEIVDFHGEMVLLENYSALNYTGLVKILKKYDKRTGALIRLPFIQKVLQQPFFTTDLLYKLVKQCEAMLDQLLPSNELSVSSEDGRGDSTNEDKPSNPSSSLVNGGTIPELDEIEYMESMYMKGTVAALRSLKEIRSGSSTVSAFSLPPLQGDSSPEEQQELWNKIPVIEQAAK

T5: AtSPX2 (Arabidopsis thaliana, UniProt O48781)
T5 construct: gene SPX2; full-length, N-terminal 6xHis tag removed by drICE protease; E. coli BL21(DE3)
T5 sequence (O48781 1-287): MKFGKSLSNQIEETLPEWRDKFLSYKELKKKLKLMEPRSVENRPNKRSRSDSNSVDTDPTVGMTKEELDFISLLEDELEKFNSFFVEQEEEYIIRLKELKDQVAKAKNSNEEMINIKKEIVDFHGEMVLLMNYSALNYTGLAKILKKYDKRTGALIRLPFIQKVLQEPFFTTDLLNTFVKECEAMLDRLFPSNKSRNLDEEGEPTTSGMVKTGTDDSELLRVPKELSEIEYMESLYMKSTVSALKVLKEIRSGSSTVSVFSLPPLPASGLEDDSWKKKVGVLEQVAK


Columns and labels:
[1] = target: T6, SPX2^1–280/PHR2^225–362 (rice) (Oryza sativa, UniProt Q6Z784, L28A); assay: co-expression coupled Ni-NTA pull-down (InsP6-dependent SPX2-PHR2 association); format: biochemical; conditions: 1 mM InsP6, pH 8.0, 150 mM NaCl; indirect read-out
T6 construct: untagged full-length SPX2 (residues 1-280) co-expressed with 8xHis-tagged PHR2 225-362 in E. coli; 2:2 complex; with Protein PHOSPHATE STARVATION RESPONSE 2

[2] = target: T7, SPX2^1–280/PHR2^225–362 (rice) (Oryza sativa, UniProt Q6Z784, K29A); assay: as above; format: biochemical; conditions: 1 mM InsP6, pH 8.0, 150 mM NaCl; indirect read-out
T7 construct: untagged full-length SPX2 (residues 1-280) co-expressed with 8xHis-tagged PHR2 225-362 in E. coli; 2:2 complex; with Protein PHOSPHATE STARVATION RESPONSE 2

[3] = target: T8, SPX2^1–280/PHR2^225–362 (rice) (Oryza sativa, UniProt Q6Z784, K143A/K147A); assay: as above; format: biochemical; conditions: 1 mM InsP6, pH 8.0, 150 mM NaCl; indirect read-out
T8 construct: untagged full-length SPX2 (residues 1-280) co-expressed with 8xHis-tagged PHR2 225-362 in E. coli; 2:2 complex; with Protein PHOSPHATE STARVATION RESPONSE 2

OsSPX4 = target: T1, OsSPX4; assay: analytical SEC (profile shift with InsP6); format: binding; conditions: pH 8.0, 150 mM NaCl
[4] = target: T9, SPX2^1–280/PHR2^225–362 (rice) (Oryza sativa, UniProt Q6Z784, Y25F); assay: co-expression coupled Ni-NTA pull-down (InsP6-dependent SPX2-PHR2 association); format: biochemical; conditions: 1 mM InsP6, pH 8.0, 150 mM NaCl; indirect read-out
T9 construct: untagged full-length SPX2 (residues 1-280) co-expressed with 8xHis-tagged PHR2 225-362 in E. coli; 2:2 complex; with Protein PHOSPHATE STARVATION RESPONSE 2

AtSPX4 = target: T2, AtSPX4; assay: analytical SEC (profile shift with InsP6); format: binding; conditions: pH 8.0, 150 mM NaCl
OsSPX2^1-267/Δ47-64 = target: T3, OsSPX2^1-267/Δ47-64; assay: analytical SEC and AUC (change of oligomeric state); format: binding; conditions: AUC with or without 1 mM InsP6, pH 8.0, 150 mM NaCl, 18 °C; no PHR2
[5] = target: T10, SPX2^1–280/PHR2^225–362 (rice) (Oryza sativa, UniProt Q6Z784, Y25A); assay: co-expression coupled Ni-NTA pull-down (InsP6-dependent SPX2-PHR2 association); format: biochemical; conditions: 1 mM InsP6, pH 8.0, 150 mM NaCl; indirect read-out
T10 construct: untagged full-length SPX2 (residues 1-280) co-expressed with 8xHis-tagged PHR2 225-362 in E. coli; 2:2 complex; with Protein PHOSPHATE STARVATION RESPONSE 2

OsSPX1 = target: T4, OsSPX1; assay: analytical SEC (profile shift with InsP6); format: binding; conditions: pH 8.0, 150 mM NaCl
AtSPX2 = target: T5, AtSPX2; assay: analytical SEC (profile shift with InsP6); format: binding; conditions: pH 8.0, 150 mM NaCl
[6] = target: T11, His-tagged PHR2^225–362 (rice PHR2, MYB domain and CC domain) (rice (Oryza sativa), UniProt Q6Z156 225-362); assay: AUC; sedimentation velocity of the purified SPX2/PHR2 complex, 25 mM Tris-HCl pH 8.0, 150 mM NaCl, 1 mM InsP6, 18 °C, 0.7 mg ml^-1; conditions: both partners purified
T11 construct: pET21b, C-terminal 8×His tag; codon-optimised synthetic cDNA; also called PHR2-His; source: E. coli BL21(DE3), co-expressed with SPX2; not shown: 8×His, C-terminal, kept

[7] = target: the molecule itself; assay: crystal structure; mH2A1.1^181–366-tagged SPX2^1-202/∆47-59 / InsP6 / PHR2^225–362 ternary complex, 10 mM InsP6 supplied, hanging drop, 18 °C, 3.1 Å

T11 sequence (Q6Z156 225-362): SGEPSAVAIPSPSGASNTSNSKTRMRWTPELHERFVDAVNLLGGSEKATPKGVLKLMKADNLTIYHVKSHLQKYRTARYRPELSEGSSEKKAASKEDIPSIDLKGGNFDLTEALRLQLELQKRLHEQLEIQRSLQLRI
T9 sequence (Q6Z784 whole entry Y25F, the tested form may be a part): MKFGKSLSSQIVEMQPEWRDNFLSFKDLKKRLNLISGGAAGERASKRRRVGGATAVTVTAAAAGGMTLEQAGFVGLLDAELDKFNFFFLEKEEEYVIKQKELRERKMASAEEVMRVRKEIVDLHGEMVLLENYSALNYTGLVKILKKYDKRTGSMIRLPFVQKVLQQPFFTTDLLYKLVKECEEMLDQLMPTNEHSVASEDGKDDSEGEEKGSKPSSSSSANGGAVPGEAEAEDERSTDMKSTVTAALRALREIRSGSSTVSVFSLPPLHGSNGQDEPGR
T9 sequence (Q6Z156 225-362 partner): as the sequence (Q6Z156 225-362) above
T10 sequence (Q6Z784 whole entry Y25A, the tested form may be a part): as the sequence (Q6Z784 whole entry Y25F, the tested form may be a part) above, with F25A counted along it
T10 sequence (Q6Z156 225-362 partner): as the sequence (Q6Z156 225-362) above
T8 sequence (Q6Z784 whole entry K143A/K147A, the tested form may be a part): as the sequence (Q6Z784 whole entry Y25F, the tested form may be a part) above, with F25Y, K143A, K147A counted along it
T8 sequence (Q6Z156 225-362 partner): as the sequence (Q6Z156 225-362) above
T7 sequence (Q6Z784 whole entry K29A, the tested form may be a part): as the sequence (Q6Z784 whole entry Y25F, the tested form may be a part) above, with F25Y, K29A counted along it
T7 sequence (Q6Z156 225-362 partner): as the sequence (Q6Z156 225-362) above
T6 sequence (Q6Z784 whole entry L28A, the tested form may be a part): as the sequence (Q6Z784 whole entry Y25F, the tested form may be a part) above, with F25Y, L28A counted along it
T6 sequence (Q6Z156 225-362 partner): as the sequence (Q6Z156 225-362) above

Molecule	co-expression coupled Ni-NTA pull-down (InsP6-dependent SPX2-PHR2 association) [1]	co-expression coupled Ni-NTA pull-down (InsP6-dependent SPX2-PHR2 association) [2]	co-expression coupled Ni-NTA pull-down (InsP6-dependent SPX2-PHR2 association) [3]	analytical SEC (profile shift with InsP6) (OsSPX4)	co-expression coupled Ni-NTA pull-down (InsP6-dependent SPX2-PHR2 association) [4]	analytical SEC (profile shift with InsP6) (AtSPX4)	analytical SEC and AUC (change of oligomeric state) (OsSPX2^1-267/Δ47-64)	co-expression coupled Ni-NTA pull-down (InsP6-dependent SPX2-PHR2 association) [5]	analytical SEC (profile shift with InsP6) (OsSPX1)	analytical SEC (profile shift with InsP6) (AtSPX2)	stoichiometry N [6]	stoichiometry N [7]
O=P(O)(O)O[C@H]1[C@H](OP(=O)(O)O)[C@@H](OP(=O)(O)O)[C@H](OP(=O)(O)O)[C@@H](OP(=O)(O)O)[C@H]1OP(=O)(O)O [InsP6]	strongly reduced or abolished by the Y25F, Y25A, L28A, K29A, or K143A/K147A substitutions of SPX2	strongly reduced or abolished by the Y25F, Y25A, L28A, K29A, or K143A/K147A substitutions of SPX2	strongly reduced or abolished by the Y25F, Y25A, L28A, K29A, or K143A/K147A substitutions of SPX2	their SEC profiles differ strongly in the presence of InsP6	strongly reduced or abolished by the Y25F, Y25A, L28A, K29A, or K143A/K147A substitutions of SPX2	their SEC profiles differ strongly in the presence of InsP6	InsP6 binding appears to stabilize the domain into a monomeric state	strongly reduced or abolished by the Y25F, Y25A, L28A, K29A, or K143A/K147A substitutions of SPX2	their SEC profiles differ strongly in the presence of InsP6	their SEC profiles differ strongly in the presence of InsP6	–	–
mH2A1.1^181–366-tagged SPX2^1-202/∆47-59 (domain or fragment, rice (Oryza sativa), UniProt Q6Z784 1-202, looked up, rice (Oryza sativa) SPX2, residues 1-202 with residues 47-59 (R47-T59) deleted; also called crystallized construct) MKFGKSLSSQIVEMQPEWRDNFLSYKDLKKRLNLISGGAAGERASKAAAAGGMTLEQAGFVGLLDAELDKFNFFFLEKEEEYVIKQKELRERKMASAEEVMRVRKEIVDLHGEMVLLENYSALNYTGLVKILKKYDKRTGSMIRLPFVQKVLQQPFFTTDLLYKLVKECEEMLDQLMPTNEHSVASEDG	–	–	–	–	–	–	–	–	–	–	1 SPX2:PHR2 ratio (2:2)	2
full-length rice SPX2 (SPX2^1–280), untagged (natural protein, rice (Oryza sativa), UniProt Q6Z784 1-280, looked up, rice (Oryza sativa) SPX2 (OsSPX2), full length, residues 1-280; pBB75 vector without any tag; also called OsSPX2; source: E. coli BL21(DE3), co-expressed with PHR2) MKFGKSLSSQIVEMQPEWRDNFLSYKDLKKRLNLISGGAAGERASKRRRVGGATAVTVTAAAAGGMTLEQAGFVGLLDAELDKFNFFFLEKEEEYVIKQKELRERKMASAEEVMRVRKEIVDLHGEMVLLENYSALNYTGLVKILKKYDKRTGSMIRLPFVQKVLQQPFFTTDLLYKLVKECEEMLDQLMPTNEHSVASEDGKDDSEGEEKGSKPSSSSSANGGAVPGEAEAEDERSTDMKSTVTAALRALREIRSGSSTVSVFSLPPLHGSNGQDEPGR	–	–	–	–	–	–	–	–	–	–	1 SPX2:PHR2 ratio (2:2)	–

Reference: PMC8948245, “Mechanistic insights into the regulation of plant phosphate homeostasis by the rice SPX2 – PHR2 complex” (Nature Communications, 2022)
